From patent US20260335299A1, “SUBSTITUTED OXOISOINDOLINYL PIPERIDINE-2,6-DIONE COMPOUND AS ANTICANCER AGENT” (BRISTOL-MYERS SQUIBB COMPANY, priority 2023, published 2026)
Read-outs that look alike come from different tables or passages of the source.

Biological target: IKZF2 Helios (Homo sapiens, UniProt Q96SW2+Q9UKS7)
Experiment: Human Regulatory T Cell Reprogramming Assay (Helios)
Assay type: cell-based
Set-up: Human CD4+ T cells were isolated from fresh healthy leukopaks; endogenous in cells; host or cells: FACS-sorted primary human regulatory T cells from healthy leukopaks
Method: Human CD4+ T cells were isolated from fresh healthy leukopaks (Stemcell Technologies) using the RosetteSep Human CD4+ T cell enrichment cocktail (Stemcell Technologies) and Ficoll density gradient centrifugation. Leukopaks were diluted with an equal volume of phosphate-buffered saline (PBS [Gibco]) supplemented with 2% fetal bovine serum (FBS, VWR Lifescience) and incubated with RosetteSep Human CD4^+ T cell enrichment cocktail for 20 minutes before layering on Ficoll-Paque Plus solution (GE Health Care). The cell-rich interface layer was harvested and washed twice with PBS supplemented with 2% FBS. Regulatory T cells were then isolated manually using the EasySep Human CD4^+CD1271WCD25^+ Regulatory T cell isolation kit (Stemcell Technologies) according to the manufacturer's instructions. Cells were rested overnight in Roswell Park Memorial Institute (RPMI) 1640 media (Gibco) supplemented with 10% FBS, Pen/Strep (Gibco), MEM-NEAA (Gibco), and sodium pyruvate (Gibco) in a humidified incubator (37° C., 5% CO2). Cells were then stained for CD4 (clone: RPA-T4, Biolegend), CD25 (clone: 2A3, BD Biosciences), and CD127 (clone: hIL-7R-M21, BD Biosciences). CD4+CD12710WCD25+ cells were sorted on a BD FACS Aria Fusion sorter to a purity of 95% or greater. Sorted cells were immediately used or cryopreserved for downstream assays.
Fresh or cryopreserved FACS-sorted CD4+CD127^lowCD25^+ Treg cells were cultured at 25,000-50,000 cells/well of 96-well round bottom plates in RPMI 1640 media (Gibco) supplemented with 10% FBS, Pen/Strep (Gibco), MEM-NEAA (Gibco), and sodium pyruvate (Gibco). Cells were stimulated with Treg Xpander beads (Thermo Fisher) at cells-to-beads ratio of 1:4 in the presence of 500 U/mL recombinant human IL-2 (Proleukin). Compounds were added at titrated doses and cells were incubated at 37° C., 5% CO2 for 12-13 days. Recombinant human IL-2 and compound were replenished every 2-3 days during the entire culture duration. On day 12 or 13, cells were restimulated with phorbol 12-myristate 13-acetate (PMA) and ionomycin in the presence of the protein transport inhibitors brefeldin A and monensin (eBioscience Cell Stimulation Cocktail plus protein transport inhibitors, 500×, Catalog number 00-4975-93) before proceeding with flow cytometry staining and analysis.
For flow cytometry staining, cells were washed twice with flow cytometry staining buffer (Thermo Fisher) and incubated in Human Tru-stain Fc block (Biolegend) for 10 minutes before adding eFluor780 viability dye (Thermo Fisher) and surface marker antibody cocktail for 30 minutes at 4° C. […] Data were analyzed using FlowJo version 10 and GraphPad Prism Software.
Table C-1 lists the maximum observed degradation of the IKZF2 protein and IKZF4 protein as measured in the Human Regulatory T Cell Reprogramming assay. […]

Chain of IKZF2 Helios (Q9UKS7 whole entry): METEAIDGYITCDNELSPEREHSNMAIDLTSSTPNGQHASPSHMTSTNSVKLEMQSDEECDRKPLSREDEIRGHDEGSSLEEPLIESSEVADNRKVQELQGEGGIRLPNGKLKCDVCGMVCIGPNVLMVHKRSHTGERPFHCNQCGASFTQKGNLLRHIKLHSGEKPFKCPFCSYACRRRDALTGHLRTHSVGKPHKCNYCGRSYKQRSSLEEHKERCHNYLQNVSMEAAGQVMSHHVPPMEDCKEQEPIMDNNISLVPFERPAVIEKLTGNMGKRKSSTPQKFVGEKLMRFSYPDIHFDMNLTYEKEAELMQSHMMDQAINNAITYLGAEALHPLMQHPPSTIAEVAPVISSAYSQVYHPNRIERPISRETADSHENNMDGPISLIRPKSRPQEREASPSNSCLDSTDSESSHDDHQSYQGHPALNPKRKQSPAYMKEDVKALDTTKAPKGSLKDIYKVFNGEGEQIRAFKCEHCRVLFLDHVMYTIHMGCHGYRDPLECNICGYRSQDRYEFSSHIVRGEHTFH
Chain of IKZF2 Helios (Q96SW2 whole entry): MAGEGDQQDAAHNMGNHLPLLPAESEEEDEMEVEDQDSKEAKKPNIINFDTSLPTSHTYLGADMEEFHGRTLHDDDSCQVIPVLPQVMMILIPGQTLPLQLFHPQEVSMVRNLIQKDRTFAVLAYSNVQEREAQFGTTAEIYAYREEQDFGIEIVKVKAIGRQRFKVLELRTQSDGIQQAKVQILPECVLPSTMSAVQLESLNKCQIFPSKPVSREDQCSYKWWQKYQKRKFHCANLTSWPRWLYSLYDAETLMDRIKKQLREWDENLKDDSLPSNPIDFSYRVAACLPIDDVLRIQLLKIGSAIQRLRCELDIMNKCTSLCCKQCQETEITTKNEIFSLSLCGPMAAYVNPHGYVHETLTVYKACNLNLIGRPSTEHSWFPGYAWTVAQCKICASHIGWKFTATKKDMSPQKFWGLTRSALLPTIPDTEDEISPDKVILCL
Chain of IKZF2 Helios (Q16531 whole entry partner): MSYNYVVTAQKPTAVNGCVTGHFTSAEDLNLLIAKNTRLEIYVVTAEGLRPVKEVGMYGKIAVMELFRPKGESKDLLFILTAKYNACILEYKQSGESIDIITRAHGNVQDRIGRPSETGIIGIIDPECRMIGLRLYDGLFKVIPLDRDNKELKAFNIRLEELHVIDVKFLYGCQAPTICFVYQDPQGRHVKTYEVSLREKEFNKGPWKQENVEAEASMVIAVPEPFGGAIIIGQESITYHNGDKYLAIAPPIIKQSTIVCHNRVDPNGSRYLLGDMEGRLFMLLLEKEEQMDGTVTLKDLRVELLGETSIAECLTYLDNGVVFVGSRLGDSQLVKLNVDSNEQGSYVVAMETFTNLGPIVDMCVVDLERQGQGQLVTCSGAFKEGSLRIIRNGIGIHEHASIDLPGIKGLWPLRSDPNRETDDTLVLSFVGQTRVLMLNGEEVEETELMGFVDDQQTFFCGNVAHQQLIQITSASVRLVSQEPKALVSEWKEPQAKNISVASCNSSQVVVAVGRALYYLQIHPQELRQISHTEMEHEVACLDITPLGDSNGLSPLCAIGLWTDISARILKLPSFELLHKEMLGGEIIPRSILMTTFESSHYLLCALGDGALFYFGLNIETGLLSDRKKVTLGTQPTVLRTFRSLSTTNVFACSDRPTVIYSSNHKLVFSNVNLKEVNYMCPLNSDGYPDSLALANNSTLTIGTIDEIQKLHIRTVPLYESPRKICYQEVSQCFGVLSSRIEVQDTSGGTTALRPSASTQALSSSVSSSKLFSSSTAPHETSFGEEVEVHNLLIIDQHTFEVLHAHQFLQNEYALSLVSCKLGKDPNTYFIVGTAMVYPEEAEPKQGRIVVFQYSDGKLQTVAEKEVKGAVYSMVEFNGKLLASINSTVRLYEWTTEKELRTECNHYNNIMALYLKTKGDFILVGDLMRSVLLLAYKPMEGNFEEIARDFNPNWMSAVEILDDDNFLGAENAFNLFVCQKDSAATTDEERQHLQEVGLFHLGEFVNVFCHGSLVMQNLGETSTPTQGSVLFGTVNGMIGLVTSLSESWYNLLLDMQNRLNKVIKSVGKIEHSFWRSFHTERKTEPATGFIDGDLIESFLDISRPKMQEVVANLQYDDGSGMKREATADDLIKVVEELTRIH

## Nc1nc(-c2ccc3c(c2F)CN(C2CCC(=O)NC2=O)C3=O)ccc1CN1CC(C2CCC(F)(F)CC2)C1 (stereo not shown) [Example 1, 3-(5-(6-Amino-5-((3-(4,4-difluorocyclohexyl)azetidin-1-yl)methyl)pyridin-2-yl)-4-fluoro-1-oxoisoindolin-2-yl) piperidine-2,6-dione]
Regulatory T cell, human, text summary of Table C-1, read-out: decreased the level of the IKZF2 (Helios) protein
  Dmax: ≥ 81%
Regulatory T cell, human Treg cells, stimulated, 12-13 days, read-out: IKZF2 Helios Maximum Observed Degradation
  Dmax: 81 to 86%
Human Treg cells, stimulated, 12-13 days, concentration reducing protein level by 50% compared to DMSO alone
  DC50: 36 to 172 nM
Summary table, Human T Regulatory Cell Reprogramming Assay (Table C-1), read-out: IKZF2 Helios max % deg. observed (Table E)
  Dmax: 81 to 86%
